Measured values as given in paper PMC2700083, “A covalent peptide inhibitor of RGS4 identified in a focused one-bead, one compound library screen” (BMC Pharmacology, 2009).
Changes are numbered by the printed parent chain. Marks after values point to notes of the source that are not given here. Where a SMILES comes first, the peptide text is derived from it. Bridges are numbered along the chain shown (N, C = ends).

How the values were obtained:
Assay type in all cases: binding
[1] = target: T1, RGS4 A148C, -7C (Rattus norvegicus, UniProt P49799, C132A/C183A/C197A/C204A/C71A/C95A); assay: FCPIA, RGS4 A148C in the -7C; details: read-out: 5nd logIC50 (converted)
T1 construct: made in house
T1 sequence (P49799 52-205 C71A/C95A/C132A/C183A/C197A/C204A): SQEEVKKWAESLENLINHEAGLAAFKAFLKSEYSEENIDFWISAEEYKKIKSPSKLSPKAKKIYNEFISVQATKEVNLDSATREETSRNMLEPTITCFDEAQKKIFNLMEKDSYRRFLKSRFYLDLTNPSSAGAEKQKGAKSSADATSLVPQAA
Experimental: (§1) Figure 5 Dose curves of 5nd on various RGS4 cysteine mutants. Various concentrations of 5nd were tested for disruption of the RGS4-Gαo interaction for C95A (5 nM), or […], C71A (5nM) or C148A (5nM) (B), A95C in the -7C (5nM), or A132C in the -7C (5nM) (C), A71C in the -7C (5nM), or A148C in the -7C (5nM) (D) or the mutant with no cysteines in the domain (20 nM) or the C-terminus (20 nM) (E) in the FCPIA (mean ± S.E.M., n ≥ 3).
(§2) The previous experiments tested which cysteines are necessary for inhibition by 5nd. In an alternative approach, we added cysteines back to the -7C mutant to determine which might be sufficient for 5nd activity. […] Furthermore, Cys132 is involved in the actions but this is clearly not sufficient to explain them. Thus it is concluded that 5nd is at least partially non-selective in its cysteine modification.
(§3) Proteins were expressed, purified and labeled as described previously. The mutagenesis was done using the "QuickChange Multi Site-Directed Mutagenesis Kit" from Stratagene according to the manufacturer's protocol. The construct of RGS4 used in these studies is a maltose binding protein (MBP-) fusion protein of the RGS4 sequence from which the amphipathic N-terminal helix has been removed (i.e. MBP-RGS4Δ51N). For simplicity in the text, this will be referred to as RGS4. […]

[2] = test system: RGS4 no Cys in C-terminus; assay: FCPIA, RGS4 mutant with no Cys in C-terminus
Experimental: Since 5nd forms an irreversible, DTT-sensitive bond with RGS, it was suspected that it binds covalently to a cysteine in the protein through a disulfide bridge. Indeed, removal of all 7 cysteines (termed the -7C mutant) from RGS4 greatly diminished 5nd activity (logIC50 of -3.24 ± 0.14 for -7C vs. -4.36 ± 0.02 for wild type) (Figure 5, Table 2).
as §1, §3

[3] = target: T2, RGS4 (Rattus norvegicus, UniProt P49799); assay: FCPIA (flow cytometry protein interaction assay), RGS4-Gαo interaction, wild type RGS4 (MBP-RGS4Δ51N); details: peptide 50 μM; 25 nM Gαo-Alexa Fluor-532, 5 nM RGS4-biotin
T2 construct: made in house
T2 sequence (P49799 52-205 limits assumed): T1 sequence (P49799 52-205 C71A/C95A/C132A/C183A/C197A/C204A) with A20C, A44C, A81C, A132C, A146C, A153C
Experimental: We recently described a bead-based screen in which 2.5 × 10^6 different peptide sequences were prepared as a OBOC library. Fluorescently labeled RGS4 was used to probe the library for peptides that bind RGS4 [5]. […] Since the majority of those hit peptides could bind tightly to the RGS without disrupting GAP activity, they were also tested in the flow cytometry protein interaction assay (FCPIA) (Figure 1), which measures the interaction between RGS4 and Gαo. In this method we used a Luminex flow cytometer to detect the binding of Alexa Fluor 532-labeled Gαo to biotinylated RGS4 on avidin beads in the presence of AMF (AlCl3, MgCl2, NaF and GDP) to put the Gα subunit into a transition state-like conformation. Peptides were tested at 50 μM except where limited by solubility (Table 1).
Figure 1 Hit peptides in the FCPIA. Hit peptides from Roof, et al. 2008 were tested at 50 μM unless otherwise indicated for ability to disrupt the RGS4-Gαo interaction as described using 25 nM Gα o-Alexa Fluor-532 and 5 nM wild type RGS4-biotin (mean ± S.E.M., n ≥ 3) *p < 0.05, **p < 0.01, ***p < 0.001 compared to no peptide.
(§4) Proteins were expressed, purified and labeled as described previously. The mutagenesis was done using the "QuickChange Multi Site-Directed Mutagenesis Kit" from Stratagene according to the manufacturer's protocol. The construct of RGS4 used in these studies is a maltose binding protein (MBP-) fusion protein of the RGS4 sequence from which the amphipathic N-terminal helix has been removed (i.e. MBP-RGS4Δ51N). For simplicity in the text, this will be referred to as RGS4. All other RGS proteins were human sequences and were used as Mpb fusions: RGS7 RGS domain (aa: 305–453), RGS8 full length, RGS16 full length, and RGS19ΔC11 (amino acids 1–209). To cleave RGS4Δ51N from the MBP-His6 construct for MS analysis, MBP-His6-RGS4Δ51N was treated with 15% MBP-His6-TEV protease S219V [11] for 22 hours at 4°C and purified over a Ni-NTA column.
(§5) FCPIA was performed as previously published.

[4] = target: T3, RGS4 C95A (Rattus norvegicus, UniProt P49799, C95A); assay: FCPIA, RGS4 cysteine mutant C95A; details: read-out: 5nd logIC50 (converted)
T3 construct: made in house
T3 sequence (P49799 52-205 C95A limits assumed): T1 sequence (P49799 52-205 C71A/C95A/C132A/C183A/C197A/C204A) with A20C, A81C, A132C, A146C, A153C
Experimental: as §1, §4, §5

[5] = target: T4, RGS4 A132C, -7C (Rattus norvegicus, UniProt P49799, C148A/C183A/C197A/C204A/C71A/C95A); assay: FCPIA, RGS4 A132C in the -7C; details: read-out: 5nd logIC50 (converted)
T4 construct: made in house
T4 sequence (P49799 52-205 C71A/C95A/C148A/C183A/C197A/C204A): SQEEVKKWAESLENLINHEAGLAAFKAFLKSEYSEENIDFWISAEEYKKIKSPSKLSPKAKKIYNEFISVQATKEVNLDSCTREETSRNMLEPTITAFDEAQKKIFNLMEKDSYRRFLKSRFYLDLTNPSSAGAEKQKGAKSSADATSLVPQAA
Experimental: as §1, §2, §3

[6] = target: T5, RGS4 C148A (Rattus norvegicus, UniProt P49799, C148A); assay: FCPIA, RGS4 cysteine mutant C148A; details: read-out: 5nd logIC50 (converted)
T5 construct: made in house
T5 sequence (P49799 52-205 C148A limits assumed): as the sequence (P49799 52-205 C71A/C95A/C148A/C183A/C197A/C204A) above, with A20C, A44C, A132C, A146C, A153C counted along it
Experimental: as §1, §4, §5

CC(C)C[C@@H]1NC(=O)CNC(=O)[C@H](CCCCN)NC(=O)[C@@H](NC(=O)[C@H](Cc2c[nH]c3ccccc23)NC(=O)[C@@H](N)Cc2ccc(O)cc2)CSSC[C@@H](C(=O)N[C@@H](CCCCN)C(N)=O)NC1=O [Peptide 5nd, Tyr-Trp-c [Cys-Lys-Gly-Leu-Cys]-Lys-NH2, S-S] (H-YWCKGLCK-NH2; disulfide 3-7) was tested, and the IC50 [1] was 309 µM, the “5nd logIC50” value [2] was -4.39 ± 0.07 M and the “% Inhibition of RGS4-Gαo” value [3] was 80 ± 5*** %. For the same compound, the IC50 [4] was 19.5 µM, the IC50 [5] was 389 µM and the IC50 [6] was 53.7 µM.
